In US20180369264A1, “COMBINATION OF A CARDIAC STEROID AND AN AKT INHIBITOR FOR THE TREATMENT OF CARDIOVASCULAR DISEASES AND DISORDERS” (YISSUM RESEARCH DEVELOPMENT COMPANY OF THE HEBREW …, priority 2015, published 2018):

Assays:
[1] = tested on: Ca^2+ transients in acc mutant zebrafish isolated adult heart; test: Ca^2+ transients in acc mutant zebrafish isolated adult heart; settings: for Amplitude (Maximal deflection from baseline) / Area (Area under the transient relative to baseline) / Decay slope (−Δ Fluorescence in the linear phase/sec) / Rate / Rise slope (+Δ Fluorescence in the linear phase/sec): Acc mutant, Ouabain 200 μM, MK-2206 1 nM
Description: (§1) Spontaneous Ca^2+ transients were measured in isolated hearts from adult zebrafish. The zebrafish were stunned by a blow to the head and the hearts were removed quickly and placed in Dulbecco's Modified Eagle's Medium (DMEM) containing 10% Fetal Bovine Serum (FBS) at room temperature. A total 3-5 hearts were placed in a small Petri dish containing 100 μl Krebs-Ringer's solution (119 mM NaCl, 2.5 mM KCl, 1 mM NaH2PO4, 2.5 mM CaCl2, 1.3 mM MgCl2, 20 mM HEPES and 11 mM D-glucose) with 0.01 mM Fura-2 AM (Biotium, Inc., CA, USA) in DMEM-FBS. Following incubation for 10 min (37° C., 5% CO2), 150 μl of Krebs-Ringer's solution were added to the Petri dish which was incubated for an additional 30 minutes. The dye was removed from the solution by two incubations (10 minutes each, room temperature) in DMEM-FBS solution. Intracellular Ca^2+ transients were measured in stabilizing medium containing 1% low-melt agarose in Krebs-Ringer's solution. The hearts were kept for 30 minutes in the presence of MK-2206 (or saline) and then underwent excitation/emission cycles for 2 minutes at 340 and 380 nm with 510 nm emission using a PTI fluorimetric system (Photon Technology International, Madison, USA). Ouabain was then added and the excitation/emission cycles were monitored for 8 minutes. The Ca^2+ levels are presented as the ratio of 340/380 nm fluorescence emission.

LAD-ligated rats = test: Heart contractility (echocardiography: SF, HR) in LAD-ligated rats; type: in vivo, rat; settings: for effect on heart rate: 24 hours, 3 and 6 days post MI; for SF improvement relative to 24 hours post MI: ouabain 0.8 mg/kg/day, MK-2206 12 mg/kg/day, 3, 6 and 10 days post MI
Description: Male Wister rats (150-175 g body weight) were used. Left anterior descending artery (LAD)-ligation was performed in all animals. The rats were divided to four groups, each treated with subcutaneous injection with saline (0.5 ml/kg/day), ouabain (0.8-8 mg/kg/day), MK-2206 (12 mg/Kg/day) or a combination of MK-2206 and ouabain. All injected solutions contained 9% DMSO. Heart contractility in-vivo was monitored using echocardiography. At the end of the treatment period, animals were sacrificed and heart and blood samples were harvested for analysis. Blood samples were also collected (from the eye) at baseline and 24 hours post myocardial infarction (MI).
Rats were anesthetized with 10% ketamine, 2% xylazine (0.1 ml/kg) and ventilated with a small animal respirator (Harvard). The heart was exposed via left sternotomy, and the LAD-ligation was induced by placing a 6-0 silk suture around the left anterior descending coronary artery near the atrial auricle. The animals were allowed to recover and treated with 0.5 mg/100 g Tramadol Hydrochloride by subcutaneous injection for post-operative analgesia.
Echocardiograms were performed on rats anesthetized with 2% isoflurane at baseline, at 24 hours, as well as at 3, 6 and 10 days post LAD-ligation, using a VEVO 770 equipped with a 30 MHz linear transthoracic transducer (VisualSonics). Measurements were performed in triplicate using the leading-edge convention for myocardial borders as defined by the […]. Left ventricular, end-diastolic and end-systolic diameters (LVEDD and LVESD), diastolic and systolic interventricular septal diameters (IVSD and IVSS), left ventricular diastolic area (LVEDA), left ventricular systolic area (LVESA), and heart rate (HR) were measured. Shortening fraction (SF) was calculated by the equation: SF (%)=(LVEDD−LVESD)/LVEDD×100. Heart rate was measure by peak intervals of the echocardiography measurements. All measurements were performed by an individual who was blind to the entire experimental protocol and animal treatments.

[2] = tested on: Ca^2+ transients in wt zebrafish isolated adult heart; test: Ca^2+ transients in wt zebrafish isolated adult heart; settings: for Amplitude (Maximal deflection from baseline) / Area (Area under the transient relative to baseline) / Decay slope (−Δ Fluorescence in the linear phase/sec) / Rate / Rise slope (+Δ Fluorescence in the linear phase/sec): Ouabain 200 μM, MK-2206 1 nM
Description: as §1

[3] = tested on: adult acc mutant primary cardiomyocytes; test: acc mutant primary cardiomyocyte contractility; type: cell-based, zebrafish; settings: for amplitude of contractility: 0.1 nM ouabain or 1 nM MK-2206 alone; for Amplitude / Contraction Rate (−dv/dt) / Relaxation Rate (+dv/dt): Acc mutant, 0.1 nM Oua, 1 nM MK, 20 minutes, 0.5 Hz
Description: Adult (4 to 12-month-old) ventricular myocytes were obtained by enzymatic dissociation (with collagenase II and IV, at 5 mg/ml, each). The zebrafish were stunned by a blow to the head and the brain was pithed. The heart was quickly removed and placed in a small Petri dish containing 10 ml isolation solution: 100 mM NaCl, 10 mM KCl, 1.2 mM KH2PO4, 4 mM MgSO4, 50 mM taurine, 20 mM glucose, and 10 mM Hepes, pH 6.9. The ventricle was cut free from the bulbus and atrium under a binocular. Ventricles from 3 fish were incubated for 45 minutes at 32° C. in a solution containing perfusion buffer (150 mM NaCl, 5.4 mM KCl, 1.5 mM MgSO4, 0.4 mM NaH2PO4, 2 mM CaCl2, 10 mM glucose, and 10 mM Hepes, pH 7.7). Collagenases II and IV (Gibco, NY, USA, 5 mg/ml each) and additional CaCl2 (2.012 mM final concentration) were added. Following Eppendorf centrifugation (1 minute, 250×g at room temperature) the precipitated cells were suspended in 1 ml perfusion buffer for 30 minutes at room temperature before use.
Cells were transferred to a chamber with a quartz base and examined using an inverted epifluorescence microscope (Nikon Diaphot 200, Japan). The myocytes were field-stimulated (0.5 Hz, 70 V, square waves) and contractions were measured using a video motion edge detector (Crescent Electronics, Sandy, Utah, USA) at the rate of 5 Hz. Cardiomyocyte performance was calculated as the percentage of resting cell length. The slopes of contraction and relaxation (+dL/dt and −dL/dt) were calculated from the linear portions of the changes in contractility. 9 cells per each group were measured. Each of the experiments was repeated at least 3 times with identical results.

## NC1(c2ccc(-c3nc4ccn5c(=O)[nH]nc5c4cc3-c3ccccc3)cc2)CCC1 [MK-2206]
[1]
  Amplitude (Maximal deflection from baseline): 1.85 ± 0.05
  Area (Area under the transient relative to baseline): 2.79 ± 0.23
  Decay slope (−Δ Fluorescence in the linear phase/sec): 1.72 ± 0.22
  Rate: 25 ± 3 wave/min
  Rise slope (+Δ Fluorescence in the linear phase/sec): 0.51 ± 0.04
LAD-ligated rats
  effect on heart rate: did not affect significantly heart rate
  SF improvement relative to 24 hours post MI: did not result in SF improvement
[2]
  Amplitude (Maximal deflection from baseline): 4.8 ± 0.13
  Area (Area under the transient relative to baseline): 2.81 ± 0.19
  Decay slope (−Δ Fluorescence in the linear phase/sec): 4.65 ± 0.54
  Rate: 48 ± 4.8 wave/min
  Rise slope (+Δ Fluorescence in the linear phase/sec): 1.65 ± 0.28
[3]
  amplitude of contractility: did not affect the amplitude
  Amplitude: 0.15 ± 0.02
  Contraction Rate (−dv/dt): 2.61 ± 0.74
  Relaxation Rate (+dv/dt): 0.98 ± 0.34

## C[C@@H]1O[C@@H](O[C@H]2C[C@@H](O)[C@]3(CO)[C@H]4[C@H](O)C[C@]5(C)[C@@H](C6=CC(=O)OC6)CC[C@]5(O)[C@@H]4CC[C@]3(O)C2)[C@H](O)[C@H](O)[C@H]1O [ouabain, 3-(alpha-L-Rhamnopyranosyloxy)-1beta,5beta,11alpha,14,19-pentahydroxy-5beta-card-20(22)-enolide]
[1]
  Amplitude (Maximal deflection from baseline): 1.67 ± 0.15
  Area (Area under the transient relative to baseline): 2.54 ± 0.56
  Decay slope (−Δ Fluorescence in the linear phase/sec): 1.92 ± 0.46
  Rate: 35 ± 8.4 wave/min
  Rise slope (+Δ Fluorescence in the linear phase/sec): 0.47 ± 0.1
[1]; acc, 200 μM ouabain
  changes in Ca^2+ transients parameters: did not result in any changes in the Ca^2+ transients parameters
[1]; acc, 200 μM ouabain, Akt inhibitor
  changes in Ca^2+ transient parameters in the presence of Akt inhibitor: did not cause any changes in Ca^2+ transient parameters
LAD-ligated rats; 0.8 mg/kg/day, by itself
  effect on shortening fraction (SF) following LAD-ligation: did not increase SF
LAD-ligated rats; 8 mg/kg/day
  effect on shortening fraction (SF) following LAD-ligation: significantly increased the SF of the heart starting at the 3rd day of treatment
LAD-ligated rats
  effect on heart rate: did not affect significantly heart rate
  SF improvement relative to 24 hours post MI: did not result in SF improvement
[2]; 200 μM ouabain
  increase in amplitude of the Ca^2+ transients: 27%
  increase in decay slope of the Ca^2+ transients: 86%
  increase in rise slope of the Ca^2+ transients: 61%
[2]
  Amplitude (Maximal deflection from baseline): 6.59 ± 0.71
  Area (Area under the transient relative to baseline): 2.94 ± 0.44
  Decay slope (−Δ Fluorescence in the linear phase/sec): 20 ± 3.51
  Rate: 52 ± 6.8 wave/min
  Rise slope (+Δ Fluorescence in the linear phase/sec): 7.84 ± 2.02
[3]
  amplitude of contractility: did not affect the amplitude
  Amplitude: 0.14 ± 0.03
  Contraction Rate (−dv/dt): 2.43 ± 0.84
  Relaxation Rate (+dv/dt): 0.07 ± 0.05
[3]; ouabain in the presence of Akt inhibitor
  increase in the contraction amplitude: 67%
